Reference: US20250152626A1, “CONSTRUCTION AND APPLICATION OF ENHANCED NEUTROPHIL DRUG” (China Pharmaceutical University, priority 2023, published 2025)

Tested on: Human neutrophils
Assay: Effect of single inducers on neutrophil viability (Example 1)
Type: cell-based
Conditions: FIG. 2; for effect on neutrophil lifespan / viability: single inducer 8 h in 1640 medium, inducer removed, culture 24 h, apoptosis by flow cytometry; for concentration with the best effect on neutrophil lifespan: cytokine inducers tested at 0-100 ng/mL
Method: Human neutrophils were incubated with different concentrations of single inducers in 1640 medium for 8 h. Different concentrations of single inducers included: • inducer 1 (IFNγ): 0, 10, 20, 30, 50, 100 ng/mL; • inducer 2 (GM-CSF): 0, 10, 20, 30, 50, 100 ng/mL; • inducer 3 (TNFα): 0, 10, 20, 30, 50, 100 ng/mL; • inducer 4 (duvalumab): 0.1, 0.5, 1, 2, 3, 5, 8, 10 μg/mL; • inducer 5 (avelumab): 0.1, 0.5, 1, 2, 3, 5, 8, 10 μg/mL; • inducer 6 (Q-VD-Oph): 1, 10, 20, 50, 60, 80, 100 μM; and • inducer 7 (Nec-1): 1, 10, 20, 50, 60, 80, 100 μM; and • conditions of culture were 37° C. and 5% CO2. The apoptosis of neutrophils was detected by flow cytometry after removing the inducer and continuing culture for 24 h.

[1] = PD-L1 inhibitors tested at 0.1-10 μg/mL
[2] = apoptosis inhibitors tested at 1-100 μM

Q: For duvalumab [inducer 4], which “concentration with the best effect on neutrophil viability” value (from here on “concentration … on neutrophil viability”) [1] is on record?
A: 2 µg/mL

Q: What about the “effect on neutrophil lifespan / viability” value of the same molecule?
A: increase neutrophil viability

Q: For CN1C(=O)C(Cc2c[nH]c3ccccc23)NC1=S (stereo not drawn) [inducer 7, Nec-1], which “concentration … on neutrophil viability” value [2] is on record?
A: 50 µM

Q: What about the “effect on neutrophil lifespan / viability” value of the same molecule?
A: increase neutrophil viability

Q: How did the “concentration with the best effect on neutrophil lifespan” value turn out when GM-CSF [inducer 2] was run?
A: 20 ng/mL

Q: And the “effect on neutrophil lifespan / viability” value?
A: significantly prolong the lifespan of neutrophils

Q: Which “concentration … on neutrophil viability” value [2] does the source give for CC(C)[C@H](NC(=O)c1ccc2ccccc2n1)C(=O)N[C@@H](CC(=O)O)C(=O)COc1c(F)cccc1F [inducer 6, Q-VD-Oph] here?
A: 50 µM

Q: What about the “effect on neutrophil lifespan / viability” value of the same molecule?
A: increase neutrophil viability

Q: With avelumab [inducer 5] as the molecule, how does the “concentration … on neutrophil viability” value [1] read?
A: 2 µg/mL

Q: And the “effect on neutrophil lifespan / viability” value?
A: increase neutrophil viability

B1: IFNγ (protein, UniProt P01579 24-161, looked up)
Interferon gamma: QDPYVKEAENLKKYFNAGHSDVADNGTLFLGILKNWKEESDRKIMQSQIVSFYFKLFKNFKDDQSIQKSVETIKEDMNVKFFNSNKKKRDDFEKLTNYSVTDLNVQRKAIHELIQVMAELSPAAKTGKRKRSQMLFRG
notes: cytokine, single inducer
Q: What does the source list for B1?
A: concentration with the best effect on neutrophil lifespan: 20 ng/mL; effect on neutrophil lifespan / viability: significantly prolong the lifespan of neutrophils
